Data from patent publication US12391643B2, “Substituted amino-thiol and amino-disulfide compounds, and uses thereof” (The Regents of the University of California, priority 2019, dated 2025).

What was measured:
Assay type in all cases: cell-based, human
cystinotic fibroblasts [1] = assay: Cystine depletion during constant drug exposure in cystinotic fibroblasts; conditions: 100 uM constant exposure, 0-5 h; vs cystamine
Description: (§1) In vitro experiments with isotopically enriched cystamine in cystinotic fibroblasts. Fibroblasts from a de-identified cystinotic patient were split 3× from 2 plates into 36 plates. Three different drugs were used for the experiments: cystamine (non-labeled), d2-cystamine, and d4-cystamine. There were two time series for each drug. The first was with constant drug incubation and included: 0, 10 min, 30 min, 1 h, 3 h, and 5 h. The other series included a washout after 3 h drug incubation, using fresh media following a PBS wash, and included the timepoints: 0, 30 min, 1 h, 3 h, 5 h, and 17 h. A direct quench and extraction technique were used for harvesting all cells to minimize further oxidation and metabolism. This included 2× washes with PBS that included 5 mM N-ethylmaleimide for trapping free thiol groups, and then scraping the plates with an acidified organic solvent extraction solution containing both d4-cystine and d4-cysteamine (plus d-8 cystamine) as internal standards. All samples were run on an API 4500 triple quadrupole LC-MS/MS, with selective reaction monitoring (SRM/MRM) for the following compounds of interest: cystine, NEM-cysteamine, NEM-cysteine, cystamine, and 2-(methylthio)ethylamine. All data fit well to single exponential curves (either decay or association), except where mentioned.
Following incubation, cells were washed 2× in PBS containing N-ethylmaleimide.
(§2) Fibroblasts from a de-identified cystinotic patient were split 3× from 2 plates into 18 plates. Two different drugs were used for the experiments: D4n-cystamine, and D8-cystamine. There were two time series for each drug. The first was with constant drug incubation and included: 0, 15 min, 30 min, 1 hr, and 3 hr. The other series included a washout after 3 hours of drug incubation, using fresh media following a PBS wash, and included the time-points: 0, 1 hr, 3 hr, and 16 hr. A direct quench and extraction technique was used for harvesting all cells to minimize further oxidation and metabolism. […] All samples were run on an API 4500 triple quadruple LC-MS/MS, with selective reaction monitoring (SRM/MRM) for the following compounds of interest: cystine, NEM-cysteamine, NEM-cysteine, and cystamine. All data fit well to single exponential curves (either decay or association), except where mentioned.

cystinotic fibroblasts [2] = assay: Cystine re-accumulation after washout in cystinotic fibroblasts; conditions: 100 uM for 3 h, then drug-free media up to 17 h; vs cystamine
Description: as §1
Cystine measurement after washout: Fibroblast cultures were exposed to 100 uM cystamine/d2-cystamine/d4-cystamine for 3 h. Following incubation, cells were washed with PBS, and then incubated with regular media (containing FBS) for the following timepoints: 0 min, 30 min, 1 h, 3 h, 5 h, and 17 h. Cells were harvested identically as described previously.
as §2
Fibroblast cultures were exposed to 50 μM cystamine (D8 or D4n) for 3 hours. Following incubation, cells were washed with PBS and then incubated with regular mediate containing FBS for 1 h, 3 h, and 16 h. Cells were harvested as above. […] Cystine reaccumulation between D4n-cystamine and D8-cystamine are very similar, indicating similar levels of drug remaining during the washout timepoints (FIG. 15).

cystinotic fibroblasts [3] = assay: Intracellular NEM-cysteamine, NEM-cysteine, cystamine and mixed disulfide levels in cystinotic fibroblasts; conditions: washout period
Description: as §1
NEM-cysteamine and NEM-cysteine during constant incubation. Fibroblast cultures were exposed to drug (either cystamine, d2-cystamine, or d4-cystamine) and harvested as described on page 2 for the cystine depletion curve. NEM-cysteamine (or NEM-d1-cysteamine or NEM-d2-cysteamine) was measured for each respective plate and normalized against the signal for d4-cystine.
NEM-cysteamine during washout. Fibroblast cultures were exposed to drug (either cystamine, d2-cystamine, or d4-cystamine) for 3 h were then exposed to media for various timepoints and harvested as previously described.
NEM-cysteine during washout. Fibroblast cultures were exposed to drug (either cystamine, d2-cystamine, or d4-cystamine) for 3 h were then exposed to media for various timepoints and harvested as previously described.
Cystamine during constant drug incubation. Fibroblast cultures were exposed to drug (either cystamine, d2-cystamine, or d4-cystamine) for various timepoints following harvesting as described earlier. Cystamine could be measured in the non-labeled cystamine incubation as well as the d4-cystamine incubation. d2-cystamine could not be accurately measured due to a strong background interference signal corresponding to that mass. No cystamine could be measured in the washout experiments.

Structure (SMILES): [2H]C([2H])(CN)SSC([2H])([2H])CN [D4-Cystamine, 2,2′-disulfanediylbis(ethan-2,2-d2-1-aminium) chloride]
- Rate of intracellular cystine depletion, comparison in words (cystinotic fibroblasts [1]): nearly identical
- Cystine re-accumulation after washout, comparison in words (cystinotic fibroblasts [2]): very similar
- NEM-cysteine level after 3 h incubation and washout (cystinotic fibroblasts [3]): rise and increase
